Assay results as given in ChEMBL document CHEMBL1131265, “The de novo design and synthesis of cyclic urea inhibitors of factor Xa: initial SAR studies” (Bioorg Med Chem Lett, 1998).

What was measured:
Prothrombin = Prothrombin (Homo sapiens, UniProt P00734); assay: Compound was tested for inhibition of thrombin.; parameters: species or system Oryctolagus cuniculus
Coagulation factor X = Coagulation factor X (Homo sapiens, UniProt P00742); assay: Compound was tested for inhibition of blood coagulation factor X
Coagulation factor X, sequence (P00742 41-179 limits assumed): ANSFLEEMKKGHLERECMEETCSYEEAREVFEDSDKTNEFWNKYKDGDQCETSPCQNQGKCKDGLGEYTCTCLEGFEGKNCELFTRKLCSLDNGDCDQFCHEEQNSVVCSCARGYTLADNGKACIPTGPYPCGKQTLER
Coagulation factor X, sequence (P00742 235-488 limits assumed): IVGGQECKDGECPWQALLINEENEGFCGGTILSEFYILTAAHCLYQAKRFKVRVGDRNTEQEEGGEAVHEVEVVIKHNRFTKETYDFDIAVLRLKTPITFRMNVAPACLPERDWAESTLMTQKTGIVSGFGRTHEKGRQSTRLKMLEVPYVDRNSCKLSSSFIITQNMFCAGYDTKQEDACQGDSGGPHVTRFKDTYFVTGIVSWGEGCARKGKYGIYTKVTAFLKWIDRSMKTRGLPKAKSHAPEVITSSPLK

Serine protease 1 [1] = biological target: T1, Serine protease 1 (Homo sapiens, UniProt P07477); assay: Compound was tested for inhibition of trypsin
T1 sequence (P07477 whole entry): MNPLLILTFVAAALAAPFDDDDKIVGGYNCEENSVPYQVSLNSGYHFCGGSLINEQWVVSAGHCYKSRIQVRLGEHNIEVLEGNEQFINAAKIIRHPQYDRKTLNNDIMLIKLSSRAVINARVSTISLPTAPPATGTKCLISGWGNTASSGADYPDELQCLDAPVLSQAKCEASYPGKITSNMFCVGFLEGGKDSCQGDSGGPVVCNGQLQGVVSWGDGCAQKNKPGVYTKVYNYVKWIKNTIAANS

Serine protease 1 [2] = biological target: T1, Serine protease 1; assay: Compound was tested for inhibition of trypsin.

Row | SMILES | Ki (Prothrombin) [µM] | Ki (Coagulation factor X) [µM] | Ki (Serine protease 1 [1]) [µM] | Ki (Serine protease 1 [2]) [µM]
1 | CC(=N)N1CC[C@H](Oc2ccc(C(Cc3ccc4ccc(C(=N)N)cc4c3)C(=O)O)cc2)C1 (some centres undefined) | – | – | 1.1 | –
2 | N=C(N)c1cccc(N2CCCN(C3CCN(Cc4ccccc4)CC3)C2=O)c1 | 7.3 | 0.4 | – | –
3 | N=C(N)c1ccc(N2CCCCN(c3cccc(C(=N)N)c3)C2=O)cc1 | 9.3 | 0.8 | – | 0.12
4 | N=C(N)c1cccc(NC(=O)NC2CCN(Cc3ccccc3)CC2)c1 | > 21 | 4.9 | – | > 1.2

More lines, now with the values ahead:

Row | Ki (Prothrombin) [µM] | Ki (Coagulation factor X) [µM] | Ki (Serine protease 1 [1]) [µM] | Ki (Serine protease 1 [2]) [µM] | SMILES
5 | 11 | 2.1 | – | – | N=C(N)c1cccc(N2CCN(C3CCN(Cc4ccccc4)CC3)C2=O)c1
6 | > 21 | 7.5 | – | > 1.6 | N=C(N)c1ccc(N2CCCCN(C3CCN(Cc4ccccc4)CC3)C2=O)cc1
7 | 2 | 0.102 | – | 0.282 | N=C(N)c1cccc(N2CCCCN(C3CCN(Cc4ccccc4)CC3)C2=O)c1
8 | > 21 | 2.5 | – | – | N=C(N)c1cccc(N2CCCCN(C3CCN(C(=N)N)CC3)C2=O)c1
